Source: patent US20220218700A1, “COMBINATION OF AN ?2-ADRENOCEPTOR SUBTYPE C (ALPHA-2C) ANTAGONISTS WITH A TASK1/3 CHANNEL BLOCKER FOR THE TREATMENT OF SLEEP APNEA” (Bayer Aktiengesellschaft, priority 2019, published 2022)

Tested on: upper airway collapsibility
Test: pig model of obstructive sleep apnea (OSA): collapse of the upper respiratory tract induced by negative pressure in anaesthetized, spontaneously breathing pigs
Format: in vivo, German Landrace pigs
Details: for effect on upper airway collapsibility: all negative pressures of −50, −100 and −150 cm H2O
Excerpt: The therapeutic potential of the combination of an α2-Adrenoceptor subtype C (alpha-2C) antagonists with a TASK1/3 channel blocker according to the present invention in sleep apnea has been assessed preclinically in a pig model of obstructive sleep apnea (OSA).
Using negative pressure. it is possible to induce collapse and thus obstruction of the upper respiratory tract in anaesthetized, spontaneously breathing pigs (Wirth K. J. et al., Sleep 36(5) (2013) pp. 699-708).
German Landrace pigs are used for the model. The pigs are anaesthetized and tracheotomized. Two tracheal cannulas are inserted into the trachea, one into the rostral part and the other into the caudal part of the trachea. Using a connection piece. the rostral cannula is connected to a tube to the negative pressure device and to the distal tracheal cannula. The distal tracheal cannula is additionally connected to a tube with an open end to atmosphere via a connection piece that served for free tracheal breathing, circumventing the upper airway. By appropriate opening and clamping of those tubes breathing can be switched from nasal breathing to breathing through the caudal tracheal cannula, circumventing the upper airway. and the (isolated) upper airway can be connected to the negative pressure device, causing airflow in the inspiratory direction.
At certain points in time. the collapsibility of the upper respiratory tract is tested by having the pig breathe via the caudal cannula and applying negative pressures of −50, −100 and −150 cm water head (cm H2O) to the upper respiratory tract. This causes the upper respiratory tract to collapse, which manifests itself in an interruption of the airflow and a pressure drop in the tube system. This test is conducted prior to the administration of the test substance and at certain intervals after the administration of the test substance. An appropriately effective test substance can prevent this collapse of the respiratory tract in the inspiratory phase.

[1] = time 60 min after intranasal administration of 0.3 μg, TASK1/3 blocker alone
[2] = time 0 min (time point of i.v. bolus/start of infusion of alpha-2C antagonist)
[3] = time 10 min after i.v. bolus and start of i.v. infusion 0.13 μg/kg/h of alpha-2C antagonist, before nasal TASK1/3 blocker
[4] = time 30 min after i.v. bolus and start of i.v. infusion 0.13 μg/kg/h of alpha-2C antagonist, before nasal TASK1/3 blocker
[5] = time 60 min after i.v. bolus and start of i.v. infusion 0.13 μg/kg/h of alpha-2C antagonist, before nasal TASK1/3 blocker
[6] = time 90 min after i.v. bolus and start of i.v. infusion 0.13 μg/kg/h of alpha-2C antagonist, before nasal TASK1/3 blocker
[7] = time 120 min after i.v. bolus and start of i.v. infusion 0.13 μg/kg/h of alpha-2C antagonist, before nasal TASK1/3 blocker
[8] = time 150 min after i.v. bolus and start of i.v. infusion 0.13 μg/kg/h of alpha-2C antagonist, before nasal TASK1/3 blocker

COc1cccc(C(=O)N2CCN(Cc3c(-c4ccc(Cl)cc4)nc4ccccn34)CC2)n1 [(4-{[2-(4-Chlorophenyl)imidazo[1,2-a]pyridin-3-yl]methyl}piperazin-1-yl)(6-methoxypyridin-2-yl)methanone]
0%: Percent pigs without collaps −50 cm H2O [1] | Percent pigs without collaps −100 cm H2O [1] | Percent pigs without collaps −150 cm H2O [1]
non effective dose: effectiveness of the dose on upper airway collapsibility (TASK1/TASK3 channel blocker alone, 0.3 μg)

COCc1cccnc1N1CCN(C[C@H]2COc3ccccc3O2)CC1 [(S)-1-((2,3-dihydrobenzo[b][1,4]dioxin-2-yl)methyl)-4-(3-(methoxymethyl)pyridin-2-yl)piperazine]
100%: Percent pigs without collaps −50 cm H2O [4] | Percent pigs without collaps −100 cm H2O [4] | Percent pigs without collaps −150 cm H2O [4] | Percent pigs without collaps −50 cm H2O [5] | Percent pigs without collaps −100 cm H2O [5]
inhibited upper airway collapsibility: effect on upper airway collapsibility (i.v. bolus 0.3μg/kg + i.v. infusion 0.13 μg/kg/h for five hours, only at time point 30 min after bolus and start of infusion)
0%: Percent pigs without collaps −50 cm H2O [2] | Percent pigs without collaps −100 cm H2O [2] | Percent pigs without collaps −150 cm H2O [2] | Percent pigs without collaps −50 cm H2O [3] | Percent pigs without collaps −100 cm H2O [3] | Percent pigs without collaps −150 cm H2O [3] | Percent pigs without collaps −100 cm H2O [6] | Percent pigs without collaps −150 cm H2O [6] | Percent pigs without collaps −50 cm H2O [7] | Percent pigs without collaps −100 cm H2O [7] | Percent pigs without collaps −150 cm H2O [7] | Percent pigs without collaps −50 cm H2O [8] | Percent pigs without collaps −100 cm H2O [8] | Percent pigs without collaps −150 cm H2O [8]
non effective dose: effectiveness of the dose on upper airway collapsibility (alpha-2C antagonist alone, i.v. bolus 0.3μg/kg + i.v. infusion 0.13 μg/kg/h)
50%: Percent pigs without collaps −150 cm H2O [5] | Percent pigs without collaps −50 cm H2O [6]
upper airway collapsibility was induced: effect on upper airway collapsibility (i.v. bolus 0.3μg/kg + i.v. infusion 0.13 μg/kg/h, time point 120 min after bolus and start of infusion)
